According to patent publication US11753445B2, “Therapeutic peptides” (COHBAR, INC., priority 2016, dated 2023):
Where “and” joins values, the source holds several entries; their conditions need not be identical. Identical values can stand only once.

Experiments:
3T3-L1 Adipocytes [1] = experiment: Free fatty acid levels in cultured mouse 3T3-L1 adipocytes, isoproterenol stimulated (Example 2); assay type: cell-based; conditions: test peptides 25 μM; isoproterenol 1 nM
Summary of the method: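 Release of free fatty acids, read at 540 nm, was stimulated with 1 nM isoproterenol for 3 h in mouse 3T3-L1 adipocytes (12–17 days of differentiation). Cells were pre-exposed to 25 μM peptide for 18–20 h plus 1 h, with peptide kept in during stimulation. Values are background-subtracted and normalised to isoproterenol alone.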

3T3-L1 Adipocytes [2] = experiment: Free fatty acid levels in cultured mouse 3T3-L1 adipocytes, forskolin stimulated (Example 3); assay type: cell-based; conditions: test peptides 25 μM; forskolin 1 μM
Procedure: Mouse 3T3-L1 cells were seeded at 1,000-20,000 cells per well on 96-well, 48-well, or 24-well plates in Pre-adipocyte Medium (Zen-Bio, Durham, N.C.) and grown to confluence at 37° C. in a humidified atmosphere of 5% CO2/95% air. Two days after confluence, cells were placed in Adipocyte Differentiation Medium (Zen-Bio, Durham, N.C.) and cultured for three additional days at 37° C. in a humidified atmosphere of 5% CO2/95% air. The culture media was then replaced with Adipocyte Maintenance Medium (Zen-Bio) and the cells were maintained for an additional 9-14 days at 37° C. in a humidified atmosphere of 5% CO2/95% air with partial medium replacement every other day. Following 12-17 days of differentiation, test peptides were added at a final concentration of 25 μM and incubated for 18-20 hours in Adipocyte Maintenance Medium at 37° C. in a humidified atmosphere of 5% CO2/95%. After 18-20 hours, the media was exchanged with fresh Adipocyte Maintenance Medium containing test peptides and incubated for 1 h at 37° C. in a humidified atmosphere of 5% CO2/95%. After 1 h media was exchanged with Assay Buffer (Zen-Bio) containing forskolin (1 μM) (added to all samples except untreated controls) and test peptides. Cells were incubated for a further 3 hours at 37° C. in a humidified atmosphere of 5% CO2/95%. Free fatty acid concentrations in the media were determined using a Free Fatty Acid Assay Kit (Zen-Bio) according to the manufacturer's instructions using a plate reader (540 nm). Absorbance values were corrected for untreated background and expressed relative to forskolin treated cells. Treatment with forskolin (1 μM) alone was used as the free fatty acid level stimulatory control. The relative standard deviation of the forskolin control was <10%. […] Free fatty acid levels for insulin (100 nM) treatment were <9% of the forskolin control value.

Human Primary Adipocytes [3] = experiment: Free fatty acid levels in cultured human primary adipocytes, isoproterenol stimulated (Example 4); assay type: cell-based; conditions: test peptides 25 μM; isoproterenol 1 nM
Procedure: Human primary adipocytes were seeded at 5,000-100,000 cells per well on 96-well, 48-well, or 24-well plates in Pre-adipocyte Medium (Zen-Bio, Durham, N.C.) and grown to confluence at 37° C. in a humidified atmosphere of 5% CO2/95% air. Two days after confluence, cells were placed in Adipocyte Differentiation Medium (Zen-Bio, Durham, N.C.) and cultured for three additional days at 37° C. in a humidified atmosphere of 5% CO2/95% air. The culture media was then replaced with Adipocyte Maintenance Medium (Zen-Bio) and the cells were maintained for an additional 11-21 days at 37° C. in a humidified atmosphere of 5% CO2/95% air with partial medium replacement every other day. Following 14-24 days of differentiation, test peptides were added at a final concentration of 25 μM and incubated for 18-20 hours in Adipocyte Maintenance Medium at 37° C. in a humidified atmosphere of 5% CO2/95%. After 18-20 hours, the media was exchanged with fresh Adipocyte Maintenance Medium containing test peptides and incubated for 1 h at 37° C. in a humidified atmosphere of 5% CO2/95%. After 1 h media was exchanged with Assay Buffer (Zen-Bio) containing isoproterenol (1 nM) (added to all samples except untreated controls) and test peptides. Cells were incubated for a further 3 hours at 37° C. in a humidified atmosphere of 5% CO2/95%. Free fatty acid concentrations in the media were determined using a Free Fatty Acid Assay Kit (Zen-Bio) according to the manufacturer's instructions using a plate reader (540 nm). Absorbance values were corrected for untreated background and expressed relative to isoproterenol treated cells. Treatment with isoproterenol (1 nM) alone was used as the free fatty acid level stimulatory control. The relative standard deviation of the isoproterenol control was <14%. […] Free fatty acid levels for insulin (100 nM) treatment were <5% of the isoproterenol control value.

Human Primary Adipocytes [4] = experiment: Free fatty acid levels in cultured human primary adipocytes, forskolin stimulated (Example 5); assay type: cell-based; conditions: test peptides 25 μM; forskolin 1 μM
Procedure: Human primary adipocytes were seeded at 5,000-100,000 cells per well on 96-well, 48-well, or 24-well plate in Pre-adipocyte Medium (Zen-Bio, Durham, N.C.) and grown to confluence at 37° C. in a humidified atmosphere of 5% CO2/95% air. Two days after confluence, cells were placed in Adipocyte Differentiation Medium (Zen-Bio, Durham, N.C.) and cultured for three additional days at 37° C. in a humidified atmosphere of 5% CO2/95% air. The culture media was then replaced with Adipocyte Maintenance Medium (Zen-Bio) and the cells were maintained for an additional 11-21 days at 37° C. in a humidified atmosphere of 5% CO2/95% air with partial medium replacement every other day. Following 14-24 days of differentiation, test peptides were added at a final concentration of 25 μM and incubated for 18-20 hours in Adipocyte Maintenance Medium at 37° C. in a humidified atmosphere of 5% CO2/95%. After 18-20 hours, the media was exchanged with fresh Adipocyte Maintenance Medium containing test peptides and incubated for 1 h at 37° C. in a humidified atmosphere of 5% CO2/95%. After 1 h media was exchanged with Assay Buffer (Zen-Bio) containing forskolin (1 μM) (added to all samples except untreated controls) and test peptides. Cells were incubated for a further 3 hours at 37° C. in a humidified atmosphere of 5% CO2/95%. Free fatty acid concentrations in the media were determined using a Free Fatty Acid Assay Kit (Zen-Bio) according to the manufacturer's instructions using a plate reader (540 nm). Absorbance values were corrected for untreated background and expressed relative to forskolin treated cells. Treatment with forskolin (1 μM) alone was used as the free fatty acid level stimulatory control. The relative standard deviation of the forskolin control was <20%. […] Free fatty acid levels for insulin (100 nM) treatment were <8% of the forskolin control value.

[5] = Stability in mouse plasma, peptides 100 uM (Example 14); assay type: in vitro ADME; conditions: mouse plasma 37° C., peptide 100 uM; for remaining at 0.25 h, 100 uM / remaining at 0.5 h, 100 uM / remaining at 1 h, 100 uM / remaining at 2 h, 100 uM / remaining at 3 h, 100 uM: pooled mouse plasma; for remaining at 0.25 h, 100 uM: 15 min, read-out: % Remaining at Each Time Point: 15 min; for remaining at 0.5 h, 100 uM: 30 min, read-out: % Remaining at Each Time Point: 30 min; for remaining at 1 h, 100 uM: 60 min, read-out: % Remaining at Each Time Point: 60 min; for remaining at 2 h, 100 uM: 120 min, read-out: % Remaining at Each Time Point: 120 min; for remaining at 3 h, 100 uM: 180 min, read-out: % Remaining at Each Time Point: 180 min
Procedure: Peptides (100 uM) were incubated in pooled mouse plasma at 37° C. and samples were removed and immediately analyzed for the concentration of intact peptide by LC/MS/MS over the course of 3 hours. The percent of peptide remaining in plasma at each time point was calculated relative to the initial peak area (Table 12).

[6] = test system: Diet Induced Obese (DIO) mice; experiment: Body weight, blood glucose and fat mass in Diet Induced Obese mice, 10 days (Example 6); assay type: in vivo, Male C57BL/6 mice; conditions: male DIO mice; 10 days twice daily intraperitoneal 15 mg/kg; N = 8; mean
Procedure: Animals were randomized to treatment groups based on blood glucose levels and body weight. The peptides of the invention were administered to two groups of male DIG mice once or twice daily by subcutaneous or intraperitoneal injection at a dose of 15 mg/kg/dose for 10 days (N=8 animals per treatment group). An additional group of male DIG mice (n=8) received vehicle (water or saline) alone. Body weight, blood glucose levels and food intake were monitored. Body mass distribution (fat vs lean) was determined by quantitative whole body NMR prior to dosing and at the end of dosing.

[7] = Stability in mouse plasma, peptides 10 uM (Example 15); assay type: in vitro ADME; conditions: mouse plasma 37° C., peptide 10 uM
Procedure: Peptides (10 uM) were incubated in pooled mouse plasma at 37° C. and samples were removed and immediately analyzed for the concentration of intact peptide by LC/MS/MS over the course of 3 hours. The percent of peptide remaining in plasma at each time point was calculated relative to the initial peak area (Table 13).

Substance | Free Fatty Acid Levels in 3T3-L1 Adipocytes Expressed as a Percent of Isoproterenol Control: Percent of Control Value (3T3-L1 Adipocytes [1]) | Free Fatty Acid Levels in 3T3-L1 Adipocytes Expressed as a Percent of Forskolin Control: Percent of Control Value (3T3-L1 Adipocytes [2]) [%] | Free Fatty Acid Levels in Human Primary Adipocytes Expressed as a Percent of Isoproterenol Control: Percent of Control Value (Human Primary Adipocytes [3]) [%] | Free Fatty Acid Levels in Human Primary Adipocytes Expressed as a Percent of Forskolin Control: Percent of Control Value (Human Primary Adipocytes [4]) [%] | % Remaining at Each Time Point: 0 min [5] [%] | remaining at 0.25 h, 100 uM [5] [%] | remaining at 0.5 h, 100 uM [5] [%] | remaining at 1 h, 100 uM [5] [%] | remaining at 2 h, 100 uM [5] [%] | remaining at 3 h, 100 uM [5] [%] | Difference from Vehicle Control: Decrease from Baseline in Blood Glucose [6] [mg/dL] | Difference from Vehicle Control: Decrease from Baseline in Body Weight (%) [6] [%] | Difference from Vehicle Control: Decrease from Baseline in Fat Mass [6] [g] | % Remaining at Each Time Point: 0 min ([7]; 0 min) [%] | remaining at 0.25 h, 10 uM ([7]; pooled mouse plasma, 15 min, read-out: % Remaining at Each Time Point: 15 min) [%] | remaining at 0.5 h, 10 uM ([7]; pooled mouse plasma, 30 min, read-out: % Remaining at Each Time Point: 30 min) [%] | remaining at 1 h, 10 uM ([7]; pooled mouse plasma, 60 min, read-out: % Remaining at Each Time Point: 60 min) [%] | remaining at 2 h, 10 uM ([7]; pooled mouse plasma, 120 min, read-out: % Remaining at Each Time Point: 120 min) [%] | remaining at 3 h, 10 uM ([7]; pooled mouse plasma, 180 min, read-out: % Remaining at Each Time Point: 180 min) [%]
Ac-RWQEMGYIFYPRKLR-NH2 [compound 52] | 85.6% and 99.5% | 88.0 | 126 | 107 | – | – | – | – | – | – | – | – | – | – | – | – | – | – | –
H-MRAQEMGYIFYPRKLR-OH [compound 8] | – | – | 22.2 | 107 | 100 | 13.2 | 11.2 | 10.1 | 11.7 | 9.81 | -20.0 | −0.24 | -0.20 | – | – | – | – | – | –
H-MRWQEMGYIFYPR-OH [compound 47] | 24.5% | 45.3 | 60.5 | 89.9 | 100 | 56.7 | 49 | 38.9 | 23.8 | 18.3 | – | – | – | – | – | – | – | – | –
H-MRWQEMGYIFYPRK-OH [compound 46] | 43.1% | 66.8 | 71.6 | 73.9 | 100 | 28.1 | 26.4 | 31.4 | 12.4 | 12.6 | – | – | – | – | – | – | – | – | –
H-MRWQEMGYIFYPRKL-OH [compound 45] | 37.9% | – | 22.2 | 125 | – | – | – | – | – | – | 6.00 | −2.01 | -0.69 | 100 | 66.5 | 33 | 7.31 | 0 | 0
H-QEMGYIFYPRKLR-OH [compound 40] | 83.1% | 96.1 | 122 | 107 | – | – | – | – | – | – | – | – | – | – | – | – | – | – | –
